target: human TrkA receptor (Homo sapiens (Human), UniProt P04629); assay: DiscoverX PathHunter TrkA functional assay (NGF-stimulated U2OS cells); format: cell-based; settings: U2OS cells expressing human TrkA-PK, Shc1-EA and p75NTR; compound 1 h, then NGF at ~80% of maximal response for 3 h; luminescence
Sequence (P04629 33-796): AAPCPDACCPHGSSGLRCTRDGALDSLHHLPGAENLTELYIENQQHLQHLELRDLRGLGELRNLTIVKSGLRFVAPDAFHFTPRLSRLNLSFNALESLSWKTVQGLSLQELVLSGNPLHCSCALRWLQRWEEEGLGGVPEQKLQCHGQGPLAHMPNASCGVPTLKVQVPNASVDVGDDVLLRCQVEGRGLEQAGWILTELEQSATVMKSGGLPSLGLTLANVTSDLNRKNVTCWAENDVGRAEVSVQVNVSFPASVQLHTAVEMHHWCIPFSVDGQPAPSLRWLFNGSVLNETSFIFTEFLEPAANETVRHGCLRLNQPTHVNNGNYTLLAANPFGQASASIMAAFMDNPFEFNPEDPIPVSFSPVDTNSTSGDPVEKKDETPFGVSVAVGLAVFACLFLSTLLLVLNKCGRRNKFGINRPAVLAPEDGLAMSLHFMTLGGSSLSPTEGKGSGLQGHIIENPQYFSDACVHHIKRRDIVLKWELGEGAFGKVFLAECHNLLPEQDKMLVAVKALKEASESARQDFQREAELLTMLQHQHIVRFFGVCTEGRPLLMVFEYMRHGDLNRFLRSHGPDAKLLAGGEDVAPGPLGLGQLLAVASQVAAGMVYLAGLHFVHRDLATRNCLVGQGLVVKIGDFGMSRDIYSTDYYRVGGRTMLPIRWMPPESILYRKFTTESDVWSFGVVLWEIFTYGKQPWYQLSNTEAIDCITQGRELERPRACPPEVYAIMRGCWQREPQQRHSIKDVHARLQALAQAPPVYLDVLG

Row | Structure (SMILES) | IC50
1 | O=C(Nc1cc2c(nc1-c1ccccc1)C(=O)NC2=O)c1cc(-c2ncccn2)c(C(F)(F)F)cc1F [Example 185, N-(5,7-Dioxo-2-phenyl-6,7-dihydro-5H-pyrrolo[3,4-b]pyridin-3-yl)-2-fluoro-5-(pyrimidin-2-yl)-4-(trifluoromethyl)benzamide] | 18 nM
2 | Cn1ccc(-c2cc(C(=O)Nc3cnc(CN4C(=O)CCC4=O)nc3-c3ccccc3)c(F)cc2C(F)(F)F)n1 [Example 187, N-(2-((2,5-dioxopyrrolidin-1-yl)methyl)-4-phenylpyrimidin-5-yl)-2-fluoro-5-(1-methyl-1H-pyrazol-3-yl)-4-(trifluoromethyl)benzamide] | 0.68 nM
3 | Cn1ccc(-c2cc(C(=O)Nc3cc4c(nc3-c3ccccc3)CNC4)c(F)cc2C(F)(F)F)n1 [Example 188, 2-Fluoro-5-(1-methyl-1H-pyrazol-3-yl)-N-(2-phenyl-6,7-dihydro-5H-pyrrolo[3,4-b]pyridin-3-yl)-4-(trifluoromethyl)benzamide] | 2.9 nM
4 | Cn1ccc(-c2cc(C(=O)Nc3cnc(C4CCCNC4=O)nc3-c3ccccc3)c(F)cc2C(F)(F)F)n1 (stereo not shown) [Example 193, 2-Fluoro-5-(1-methyl-1H-pyrazol-3-yl)-N-(2-(2-oxopiperidin-3-yl)-4-phenylpyrimidin-5-yl)-4-(trifluoromethyl)benzamide] | 3.9 nM
5 | CNS(=O)(=O)Cc1ccc(NC(=O)c2cc(-c3ccn(C)n3)c(C(F)(F)F)cc2F)c(-c2ccccc2)n1 [Example 200, 2-fluoro-5-(1-methyl-1H-pyrazol-3-yl)-N-(6-((N-methylsulfamoyl)methyl)-2-phenylpyridin-3-yl)-4-(trifluoromethyl)benzamide] | 4.4 nM
6 | Cn1ccc(-c2cc(C(=O)Nc3cnc(CC4CC(=O)NC4=O)nc3-c3ccccc3)c(F)cc2C(F)(F)F)n1 (stereo not shown) [Example 201, N-(2-((2,5-Dioxopyrrolidin-3-yl)methyl)-4-phenylpyrimidin-5-yl)-2-fluoro-5-(1-methyl-1H-pyrazol-3-yl)-4-(trifluoromethyl)benzamide] | 2.8 nM
7 | Cn1ccc(-c2cc(C(=O)Nc3cc(CC(N)=O)cnc3-c3ccccc3)c(F)cc2C(F)(F)F)n1 [Example 202, N-(5-(2-Amino-2-oxoethyl)-2-phenylpyridin-3-yl)-2-fluoro-5-(1-methyl-1H-pyrazol-3-yl)-4-(trifluoromethyl)benzamide] | 3.7 nM
8 | Cn1ccc(-c2cc(C(=O)Nc3cc(CC(N)=O)cnc3-c3ccccc3)ccc2C(F)(F)F)n1 [Example 203, N-(5-(2-amino-2-oxoethyl)-2-phenylpyridin-3-yl)-3-(1-methyl-1H-pyrazol-3-yl)-4-(trifluoromethyl)benzamide] | 6 nM
9 | O=C(Nc1cc(Cc2cnco2)cnc1-c1ccccc1)c1cc(-c2ncccn2)c(C(F)(F)F)cc1F [Example 204, 2-fluoro-N-(5-(oxazol-5-ylmethyl)-2-phenylpyridin-3-yl)-5-(pyrimidin-2-yl)-4-(trifluoromethyl)benzamide] | 8.3 nM
10 | Cn1ccc(-c2cc(C(=O)Nc3ccc(C4CN(C(=O)CO)C4)nc3-c3ccccc3)c(F)cc2C(F)(F)F)n1 [Example 206, 2-Fluoro-N-(6-(1-(2-hydroxyacetyl)azetidin-3-yl)-2-phenylpyridin-3-yl)-5-(1-methyl-1H-pyrazol-3-yl)-4-(trifluoromethyl)benzamide] | 1.3 nM
11 | Cn1ccc(-c2cc(C(=O)Nc3ccc(C4CN(C(=O)CN)C4)nc3-c3ccccc3)c(F)cc2C(F)(F)F)n1 [Example 207, 2-fluoro-N-(6-(1-glycylazetidin-3-yl)-2-phenylpyridin-3-yl)-5-(1-methyl-1H-pyrazol-3-yl)-4-(trifluoromethyl)benzamide] | 1.1 nM
12 | Cn1ccc(-c2cc(C(=O)Nc3cnc(NC(=O)CO)nc3-c3ccccc3)c(F)cc2C(F)(F)F)n1 [Example 209, 2-Fluoro-N-(2-(2-hydroxyacetamido)-4-phenylpyrimidin-5-yl)-5-(1-methyl-1H-pyrazol-3-yl)-4-(trifluoromethyl)benzamide] | 2 nM
13 | Cn1ccc(-c2cc(C(=O)Nc3cnc(NCCO)nc3-c3ccccc3)ccc2C(F)(F)F)n1 [Example 210, N-(2-((2-hydroxyethyl)amino)-4-phenylpyrimidin-5-yl)-3-(1-methyl-1H-pyrazol-3-yl)-4-(trifluoromethyl)benzamide] | 2.5 nM
14 | Cn1ccc(-c2cc(C(=O)Nc3cnc(N4CCNC4=O)nc3-c3ccccc3)c(F)cc2C(F)(F)F)n1 [Example 211, 2-fluoro-5-(1-methyl-1H-pyrazol-3-yl)-N-(2-(2-oxoimidazolidin-1-yl)-4-phenylpyrimidin-5-yl)-4-(trifluoromethyl)benzamide] | 2.6 nM
15 | Cn1ccc(-c2cc(C(=O)Nc3cnc(NCC(N)=O)nc3-c3ccccc3)c(F)cc2C(F)(F)F)n1 [Example 213, N-(2-((2-amino-2-oxoethyl)amino)-4-phenylpyrimidin-5-yl)-2-fluoro-5-(1-methyl-1H-pyrazol-3-yl)-4-(trifluoromethyl)benzamide] | 1.4 nM

Continued, values first:

Row | IC50 | Structure (SMILES)
16 | 2.6 nM | Cn1ccc(-c2cc(C(=O)Nc3cc(S(C)(=O)=O)cnc3-c3ccccc3)c(F)cc2C(F)(F)F)n1 [Example 194, 2-Fluoro-5-(1-methyl-1H-pyrazol-3-yl)-N-(5-(methylsulfonyl)-2-phenylpyridin-3-yl)-4-(trifluoromethyl)benzamide]
17 | 2.8 nM | Cn1ccc(-c2cc(C(=O)Nc3cc(S(C)(=N)=O)cnc3-c3ccccc3)c(F)cc2C(F)(F)F)n1 (stereo not shown) [Example 195, 2-fluoro-5-(1-methyl-1H-pyrazol-3-yl)-N-(5-(S-methylsulfonimidoyl)-2-phenylpyridin-3-yl)-4-(trifluoromethyl)benzamide]
18 | 4 nM | Cn1ccc(-c2cc(C(=O)Nc3cnc(CS(C)(=O)=O)nc3-c3ccccc3)c(F)cc2C(F)(F)F)n1 [Example 199, 2-Fluoro-5-(1-methyl-1H-pyrazol-3-yl)-N-(2-((methylsulfonyl)methyl)-4-phenylpyrimidin-5-yl)-4-(trifluoromethyl)benzamide]
19 | 8.4 nM | Cn1ccc(-c2cc(C(=O)Nc3nc(CC(N)=O)ccc3-c3ccccc3)c(F)cc2C(F)(F)F)n1 [Example 205, N-(6-(2-Amino-2-oxoethyl)-3-phenylpyridin-2-yl)-2-fluoro-5-(1-methyl-1H-pyrazol-3-yl)-4-(trifluoromethyl)benzamide]
20 | 3 nM | CC(=O)N1CC(c2ccc(NC(=O)c3cc(-c4ccn(C)n4)c(C(F)(F)F)cc3F)c(-c3ccccc3)n2)C1 [Example 208, N-(6-(1-acetylazetidin-3-yl)-2-phenylpyridin-3-yl)-2-fluoro-5-(1-methyl-1H-pyrazol-3-yl)-4-(trifluoromethyl)benzamide]
21 | 2.8 nM | Cn1ccc(-c2cc(C(=O)Nc3cnc(N)nc3-c3ccccc3)c(F)cc2C(F)(F)F)n1 [Example 212, N-(2-amino-4-phenylpyrimidin-5-yl)-2-fluoro-5-(1-methyl-1H-pyrazol-3-yl)-4-(trifluoromethyl)benzamide]
22 | 4.6 nM | Cn1ccc(-c2cc(C(=O)Nc3ncc(CN4CCOC4=O)nc3-c3ccccc3)c(F)cc2C(F)(F)F)n1 [Example 214, 2-Fluoro-5-(1-methyl-1H-pyrazol-3-yl)-N-(5-((2-oxooxazolidin-3-yl)methyl)-3-phenylpyrazin-2-yl)-4-(trifluoromethyl)benzamide]

— US9815846B2 (Merck Sharp & Dohme Corp., priority 2014, dated 2017)
